Measurements taken from US20260306500A1, “METHOD OF INHIBITING ADENOSINE TRIPHOSPHATE SECRETION, METHOD OF INHIBITING HEPATIC STELLATE CELL ACTIVATION, METHOD OF DEACTIVATING HEPATIC STELLATE CELL, METHOD OF TREATING HEPATIC FIBROSIS, METHOD OF TREATING NON-ALCOHOLIC STEATOHEPATITIS, AND METHOD OF TREATING PSORIASIS” (Kurume University, priority 2023, published 2026).

Tests used:
[1] = tested on: human epidermal keratinocytes; test: ATP secretion from human epidermal keratinocytes promoted by ionomycin; assay type: cell-based; conditions: for ATP secretion level relative to control solution (RLU ratio): 1 μM imeglimin, N=3 (FIG. 4)
Experimental: Human epidermal keratinocytes (Cryopreserved HEK, Lot 1758, Cell Applications Inc.) were cultured using an Epivita Keratinocyte Growth Medium Kit according to the manufacturer's instructions. The procedure was as follows. A supplement medium was added to a hydrocortisone-containing basal medium included in the medium preparation kit to prepare a complete medium. The medium in the dish was removed by aspiration. The cells were washed with 5 ml of BSS (Gbco), and then the BSS was removed by aspiration. After addition of 5 to 6 ml of trypsin/EDTA solution (Gbco), the dish was incubated at 37° C. for 2 minutes. After addition of 5 ml of trypsin neutralization solution, the resulting cell suspension was transferred into two 15-ml Falcon tubes, and centrifuged at 200×g for 5 minutes. The supernatant was removed by aspiration, and the pelleted cell cluster was suspended in 2 ml of the medium at 4.5×10^5 cells/ml. An aliquot of the resulting cell suspension was cryopreserved, while another aliquot was cultured and subjected to measurement.
ATP secretion by human epidermal keratinocytes (hereinafter referred to as “keratinocytes”) was measured. Regarding control solutions, Krebs-Ringer HEPES supplemented with 0.2% BSA and 25 mM glucose (hereinafter also referred to as “Krebs/Iono(−)”) was used as a negative control, and a solution prepared by adding 5 μM ionomycin to this solution (hereinafter also referred to as “Krebs/Iono(+)”) was used as a positive control for ATP secretion. Ionomycin is a Ca^2+ ionophore. Addition of ionomycin to cells is known to promote influx of extracellular Ca^2+ into the cells to increase the intracellular Ca^2+ concentration, resulting in enhancement of ATP secretion. Test solutions were prepared by adding clodronate to Krebs/Iono(−) or Krebs/Iono(+) to a final concentration of 0.1 μM (hereinafter also referred to as “Clo/Iono(−)” or “Clo/Iono(+)”, respectively) (N=3).
Keratinocytes were cultured at 2.5×10^4 cells/well in a 24-well plate at 37° C. in 5% CO2 for 4 days. The medium was removed by aspiration, replaced with Krebs/Iono(−) or Clo/Iono(−), and incubated at 37° C. for 6 hours. These solutions were then removed by aspiration, and the content of each well incubated with Krebs/Iono(−) was replaced with 300 μl of a control solution (Krebs/Iono(−) or Krebs/Iono(+)), while the content of each well incubated with Clo/Iono(−) was replaced with 300 μl of a test solution (Clo/Iono(−) or Clo/Iono(+)). After further incubation at 37° C. for 20 minutes, 200 μl of the supernatant was collected. The collected supernatant was immediately treated on a heat block at 95° C. for 10 minutes, to inactivate ectonucleotidase. ATP in the supernatant was quantified using a Dojindo ATP assay kit−Luminescence (manufactured by Dojindo Laboratories).
Keratinocytes were cultured in the same manner as in Example 1, and ATP secretion from the keratinocytes was measured. Krebs/Iono(−), or a solution prepared by adding 10 μM imeglimin, 0.1 μM eicosapentaenoic acid (EPA), 1 μM EPA, or 10 μM clodronate to Krebs/Iono(−) was used (N=4).
After culturing keratinocytes, the medium was removed by aspiration, and replaced with Krebs/Iono(−), or Krebs/Iono(−) supplemented with 10 μM imeglimin, 0.1 μM EPA, 1 μM EPA, or 10 μM clodronate, followed by incubation for 6 hours. Subsequently, the solution was replaced with either a control solution (Krebs/Iono(−) or Krebs/Iono(+)) or a test solution (Krebs/Iono(+) supplemented with 10 μM imeglimin, 0.1 μM EPA, 1 μM EPA, or 10 μM clodronate), followed by incubation at 37° C. for 20 minutes and then collection of 200 μl of the supernatant. The collected supernatant was immediately treated on a heat block at 95° C. for 10 minutes to inactivate ectonucleotidase. ATP in the supernatant was quantified using a Dojindo ATP assay kit—Luminescence (manufactured by Dojindo Laboratories). […]

[2] = tested on: α-SMA-positive cells (stellate cells) in mouse liver; test: TAA-induced activation of HSCs in mice: α-SMA immunostaining of liver sections; assay type: in vivo
From the text: For immunohistochemical analysis, liver samples were fixed in 4% paraformaldehyde, embedded in paraffin, and then sectioned. The sections were stained with HE or PSR. In addition, the paraffin-embedded sections were subjected to immunostaining using an α-SMA monoclonal antibody (1:500, catalog No. A5228, manufactured by Sigma-Aldrich) and an F4/80 monoclonal antibody (1:200, catalog No. MCA497GA, manufactured by AbD Serotec). The cell specimens were observed using a microscope (BZ-X700 series, manufactured by Keyence) or a confocal laser microscope (FV1000, manufactured by Olympus Corporation). The number of F4/80-positive cells was counted in four high-power fields per section. The α-SMA-positive area and the PSR-positive area were quantified using the image analysis software Fiji-ImageJ (1.54f).
In accordance with Example 15, immunostaining of α-SMA in liver sections and observation by fluorescence microscopy were performed for the normal control group, the TAA group, and the TAA+IMG group, and for a TAA+Clo group, which was treated in the same manner as the TAA+IMG group except that clodronate, instead of imeglimin, was administered at 30 mg/kg by blending it in the drinking water from 1 week after the start of TAA administration.

[3] = tested on: human epidermal keratinocytes; test: ATP secretion from keratinocytes upon LPS stimulation; assay type: cell-based; conditions: 18 hours, 10 μg/ml LPS, N=8 (FIG. 8)
Experimental: Keratinocytes were cultured in the same manner as in Example 1. Keratinocytes were cultured at 2.5×10^4 cells/well in a 24-well plate at 37° C. in 5% CO2 for 4 days. The medium was replaced with a test solution (Hanks' balanced salt solution (HBSS) (manufactured by Gibco) supplemented with imeglimin, metformin, or clodronate), and then incubation was performed at 37° C. in 5% CO2 for 18 hours. Thereafter, LPS (10 μg/ml) was added thereto, and incubation was further carried out for 10 minutes, followed by collection of 200 μl of the supernatant. The supernatant was immediately treated on a heat block at 95° C. for 10 minutes, and ATP in the supernatant was quantified using an ATP Assay Kit−Luminescence (manufactured by Dojindo) (N=8).

Compound | ATP secretion inhibitory effect ([1]; PEP at not less than 3 mM (data not shown)) | ATP secretion level promoted by ionomycin ([1]; 0.1 μM clodronate, 6 h preincubation, 5 μM ionomycin, N=3 (FIG. 1)) | TAA-induced increase in α-SMA-positive reaction ([2]; 30 mg/kg clodronate in drinking water (FIG. 29)) | LPS-stimulated ATP secretion ([3]; 10 μM) | ATP secretion inhibitory effect at low concentration ([1]; 0.1 μM, 6 h preincubation, ionomycin) | ATP secretion level relative to control solution (RLU ratio) ([1]; incubation time 2 hours, ionomycin) | ATP secretion level relative to control solution (RLU ratio) ([1]; incubation time 6 hours, ionomycin) | ATP secretion inhibitory effect, comparison ([1]; 10 μM imeglimin vs 1 μM EPA and 10 μM clodronate) | ATP secretion inhibitory effect relative to metformin ([1]; 0.1, 1, 10 μM, 6 h preincubation, N=3 (FIG. 3)) | α-SMA immunostaining, effect compared with clodronate ([2]; imeglimin 200 mg/kg p.o. (FIG. 30)) | LPS-stimulated ATP secretion ([3]; 1 μM)
C=C(OP(=O)(O)O)C(=O)O [PEP, phosphoenolpyruvic acid] | relatively strong ATP secretion inhibitory effect | – | – | – | – | – | – | – | – | – | –
O=P(O)(O)C(Cl)(Cl)P(=O)(O)O [clodronate] | – | almost the same as those in Krebs/Iono(−) and Clo/Iono(−) | markedly suppressed | almost completely inhibited | – | – | – | – | – | – | –
C[C@@H]1N=C(N)NC(N(C)C)=N1 [imeglimin] | – | – | – | almost completely inhibited | exhibit an ATP secretion inhibitory effect | about 85% | about 40% | comparable to those of 1 μM EPA and 10 μM clodronate | slightly higher ATP secretion inhibitory effect than metformin | effect similar to that of clodronate | almost completely inhibited
